Laboratory results published in patent US8632839B2, “Methods of forming self-supporting films for delivery of therapeutic agents” (priority 2010, dated 2014).
Structures can show the parent of a compound that is named as a salt.

Assay: saturation and payload limits for dip coating bupivacaine HCl on polyester mesh (FIG. 8)
Assay type: physicochemical
Details: Parietex monofilament polyester mesh without polymer film
Excerpt: Further, it is believed that spraying films on a medical device (e.g., mesh) compared to other conventional methods, such as dip coating, provides increased loading of the therapeutic agent.
More particularly FIG. 8 illustrates the loading limits for a polyester mesh (Parietex™ monofilament mesh) without a polymer film.

SMILES: CCCCN1CCCCC1C(=O)Nc1c(C)cccc1C (centres unmarked) [bupivacaine HCl, bupivacaine hydrochloride]
- saturation and payload limit for dip coating solution (solution in MeOH): 12 % w/v
- saturation and payload limit for dip coating solution (solution in water): 5 % w/v
